In ChEMBL document CHEMBL1134016, “Different antagonist binding properties of human and rat histamine H3 receptors” (Bioorg Med Chem Lett, 2001):

What was measured:
Histamine H3 receptor [1] = target: T1, Histamine H3 receptor (Homo sapiens, UniProt Q9Y5N1); test: biochemical; type: cell-based, CHO-K1
Description: Inhibition of [125I]iodoproxyfan binding to human histamine H3 receptor of CHO-K1 cells

Histamine H3 receptor [2] = target: T1, Histamine H3 receptor; test: Ratio of binding affinity of rat histamine H3 receptor to that of human histamine H3 receptor; 1:3
Histamine H3 receptor [3] = target: T2, Histamine H3 receptor (Rattus norvegicus, UniProt Q9QYN8); test: biochemical; type: cell-based, CHO-K1
Description: Inhibition of [125I]iodoproxyfan from rat histamine H3 receptor expressed in CHO-K1 cells

Histamine H3 receptor [4] = target: T1, Histamine H3 receptor; test: Ratio of binding affinity of rat histamine H3 receptor to that of human histamine H3 receptor; 1:12
Histamine H3 receptor [5] = target: T1, Histamine H3 receptor; test: Ratio of binding affinity of rat histamine H3 receptor to that of human histamine H3 receptor;1:10
Histamine H3 receptor [6] = target: T2, Histamine H3 receptor; test: Binding affinity to rat Histamine H3 receptor in CHO-K1 cells using [125I]iodoproxyfan as radioligand; type: cell-based
Histamine H3 receptor [7] = target: T1, Histamine H3 receptor; test: Ratio of binding affinity of rat histamine H3 receptor to that of human histamine H3 receptor;1:6

T1 sequence (Q9Y5N1 whole entry): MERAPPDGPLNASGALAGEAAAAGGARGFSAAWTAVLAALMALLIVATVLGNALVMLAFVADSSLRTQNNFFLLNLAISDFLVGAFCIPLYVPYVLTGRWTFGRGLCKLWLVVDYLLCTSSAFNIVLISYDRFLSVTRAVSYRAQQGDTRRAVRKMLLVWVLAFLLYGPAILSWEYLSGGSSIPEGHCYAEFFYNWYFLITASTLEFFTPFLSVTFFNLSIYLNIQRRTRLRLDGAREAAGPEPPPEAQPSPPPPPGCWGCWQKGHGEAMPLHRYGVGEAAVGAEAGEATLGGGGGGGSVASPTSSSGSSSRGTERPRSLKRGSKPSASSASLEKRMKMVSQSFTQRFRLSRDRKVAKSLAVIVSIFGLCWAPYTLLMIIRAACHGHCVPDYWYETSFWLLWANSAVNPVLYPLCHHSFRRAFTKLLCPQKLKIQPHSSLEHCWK
T2 sequence (Q9QYN8 whole entry): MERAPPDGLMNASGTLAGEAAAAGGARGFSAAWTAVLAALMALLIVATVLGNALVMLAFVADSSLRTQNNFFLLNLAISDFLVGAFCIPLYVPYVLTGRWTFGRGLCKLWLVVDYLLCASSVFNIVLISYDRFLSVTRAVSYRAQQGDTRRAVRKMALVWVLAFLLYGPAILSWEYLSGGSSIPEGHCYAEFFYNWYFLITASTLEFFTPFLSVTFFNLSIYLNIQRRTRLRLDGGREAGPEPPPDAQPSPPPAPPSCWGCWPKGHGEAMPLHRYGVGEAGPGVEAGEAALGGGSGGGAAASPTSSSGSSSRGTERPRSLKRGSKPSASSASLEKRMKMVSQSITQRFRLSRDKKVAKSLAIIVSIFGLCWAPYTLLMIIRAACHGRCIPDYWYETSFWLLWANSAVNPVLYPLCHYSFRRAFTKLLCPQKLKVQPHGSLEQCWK

Row | Structure (SMILES) | Ki (Histamine H3 receptor [1]) [nM] | Ki (Histamine H3 receptor [3]) [nM] | other results
1 | CC(=O)c1ccc(OCCCCc2cnc[nH]2)cc1 | 19 | 36 | –
2 | CC(=O)c1ccc(OCCc2c[nH]cn2)cc1 | – | – | Ratio (Histamine H3 receptor [4]): 12
3 | Ic1ccc(COCCCc2c[nH]cn2)cc1 [IODOPROXYFAN] | 41 | 71 | –
4 | CC(=O)c1ccc(SCCc2c[nH]cn2)cc1 | – | – | Ratio (Histamine H3 receptor [5]): 10
5 | S=C(NC1CCCCC1)N1CCC(c2cnc[nH]2)CC1 [THIOPERAMIDE] | – | – | Ki (Histamine H3 receptor [6]): 6.5 nM
6 | COc1ccc(OCCCc2c[nH]cn2)cc1 | 47 | 7.9 | Ratio (Histamine H3 receptor [7]): 6

The next lines start with results.

Row | Ki (Histamine H3 receptor [1]) [nM] | Ki (Histamine H3 receptor [3]) [nM] | Structure (SMILES) | other results
7 | 87 | 29 | CC(=O)c1ccc(OCCCc2c[nH]cn2)cc1 | Ratio (Histamine H3 receptor [2]): 3
8 | 27 | – | c1ccc(OCCCc2c[nH]cn2)cc1 | –
9 | 42 | 3.6 | CC(=O)c1ccc(OCCc2cnc[nH]2)cc1 | –
10 | 2.7 | 2.9 | c1ccc(COCCCc2c[nH]cn2)cc1 [PROXYFAN] | –
11 | 18 | 44 | CC(=O)c1ccc(SCCCc2c[nH]cn2)cc1 | –
12 | – | 3.9 | O=C(c1ccc(OCCCc2cnc[nH]2)cc1)C1CC1 [CIPROXIFAN] | –
13 | 1.1 | 0.11 | CC(=O)c1ccc(SCCc2cnc[nH]2)cc1 | –
